{"source": "paper PMC5510229", "about": "“BCAT1 controls metabolic reprogramming in activated human macrophages and is associated with inflammatory diseases” (Nature Communications, 2017)", "test_system": "mouse peritoneal macrophages", "test": "Mouse i.p. injection of LPS and ERG240, peritoneal macrophages analysed", "format": "in vivo, C57BL/6 mice", "description": "Figure 4 Bcat1 inhibition blocks itaconate production in vivo and polarizes peritoneal macrophages. Mouse peritoneal macrophages from vehicle (saline), LPS-injected (1.5 mg kg^−1) or LPS+ERG240 (500 mg kg^−1)–injected mice were isolated and pooled 24 h following i.p. injection (n=6 mice per group). Irg1 protein (a), mRNA (b) levels, as well as itaconate measurements by GC/MS (c) are shown. […] Peritoneal macrophages were collected 24 h following the LPS injection. n=3 mice/group. (d) Protein–protein interaction (PPI) network in 100 top (97 annotated) differentially expressed genes between LPS and LPS+ERG240 treated mouse peritoneal macrophages illustrated by STRING (high confidence score=0.7). The IFN-inducible GTPase cluster is shown within a dashed circle. (e) Distribution of the fold changes and the FDR-adjusted P values (−log10 (FDR)) for the comparison between LPS and LPS+ERG240 treated macrophages. The IFN- inducible GTPase genes, M1-like, M2-like and extracellular matrix transcripts are shown in blue. (f) Fragments per kilobase of transcript per Million mapped reads (FPKM) values for Nos2, Il6 are shown in vehicle, LPS and LPS+ERG240-treated peritoneal macrophages. (g) FPKM values for Ifit1, Ifit2, Ifit3, Gbp1, Gbp2, Gbp4, Gbp7, Mrc1, Klf4, Cd36, Fn1, Mmp9, Gsn and Spp1. FPKM=1 is shown as a dashed line to denote minimal expression levels. All transcripts analysed by RNA-seq (f,g) show significant FPKM upon ERG240 treatment when compared to LPS group (FDR<10^−73). Error bars are s.e.m. Significance was tested using one-way ANOVA. *P<0.05 by ANOVA.\nThe procedure was performed by Washington Biotechnology Inc. (Baltimore, MD). […] Same dose of ERG240 was administered a second time, 8 h following the first injection of LPS. Peritoneal macrophages were harvested 24 h after the LPS injection and results from three groups (vehicle, LPS only, LPS+ERG240; n=6 mice in each group) were analysed in terms of IRG1 and itaconate level measurements.\nFor itaconate, cells pellets containing 1.5 × 10^6 hMDMs were quenched with 400 μl of methanol, previously chilled at −20 °C. After addition of 400 μl of cold (4 °C) ultrapure water, cell pellets were vortexed briefly and then allowed to stand for 10 min on ice. Following addition of 400 μl of GC/MS grade dichloromethane, previously chilled at −20 °C, samples were vortexed again and centrifuged at 14,000g for 10 min at 4 °C. The aqueous layer of the samples was collected and lyophilized. Dried materials were dissolved in 40 μl of MOX solution, which is prepared by allowing 20 mg of methoxamine HCl (Sigma Aldrich) to dissolve in 500 μl pyridine for 30 min at room temperature. Metabolites dissolved in MOX were incubated at 45 °C for 60 min, derivatized by adding 60 μl of N-methyl-N-(trimethylsilyl) trifluoroacetamide (MSFTA, Mecherey-Nagel) and incubated at 45 °C for 30 min. After a brief centrifugation, derivatized metabolites were transferred into clean GC/MS vials and analysed for the presence of itaconic acid (itaconate) using a 7890A GC System (Agilent Technologies) equipped with an Agilent J&W DB-5ms column (30 m, 0.25 mm, 0.25 μm), connected to an 5975C Triple-Axis MS Detector (Agilent Technologies) and outfitted with an autosampler. The MS source was held at 230 °C and the quadrupole at 150 °C. The GC oven temperature was held at 50 °C for 5 min, increased to 240 °C at a rate of 10 °C min^−1, held at 240 °C for 5 min and increased to 300 °C at a rate of 10 °C min^−1. A volume of 1 μl was injected in the system in a 1:3 split mode. The amount of itaconate present in the sample was determined after peak integration. For citrate, the frozen cell pellets were re-suspended in ice-cold ethanol-phosphate buffer. Cells were lysed by three freeze-thaw cycles and sonication. Samples were centrifuged and the supernatant was used for further analysis. […]", "key": {"[1]": {"conditions": "LPS 1.5 mg kg^−1 + ERG240 500 mg kg^−1 i.p., 24 h"}, "[2]": {"conditions": "LPS+ERG240 vs LPS, peritoneal macrophages, 24 h"}}}
{"smiles": "CC(=O)C(C)CCC(=O)O", "note": "(stereo not drawn) [ERG240]", "values": [{"measurement": "itaconate in peritoneal macrophages, sequential treatment", "setting": "ERG240 administered 3 h after the first LPS injection, collected 24 h", "result": "equally decreased"}, {"measurement": "Il6, Gbp4 expression levels, sequential treatment", "setting": "ERG240 administered following 3 hours of LPS, qRT-PCR", "result": "inhibitory effect"}, {"measurement": "Irg1 mRNA and protein levels in peritoneal macrophages", "setting": "[1]", "result": "reduction"}, {"measurement": "itaconate in peritoneal macrophages", "setting": "[1]", "result": "significant decrease"}, {"measurement": "IFN-inducible GTPase signature genes and M1-like markers (Nos2, Il6), RNA-seq", "setting": "[2]", "result": "down-regulated"}, {"measurement": "M2-like and extracellular matrix transcripts, RNA-seq", "setting": "[2]", "result": "up-regulated"}]}
